In article PMC11445722, “Synthesis, Characterization, and Biological Evaluation of Novel [M(η^6-arene)2]^+ (M = Re, ^99mTc) Hosted Terpyridines and Copper Complexes Thereof” (Inorganic Chemistry, 2024):

Tests used:
Format in all cases: cell-based
[1] = system: HT29 (human colon adenocarcinoma); test: Cell viability (resazurin) assay, 2D model, HT29; settings: 48 h incubation, three independent experiments, read-out: IC50 ± SEM, HT29
Description: (§1) First, the cytotoxic activity of the compounds was investigated in different cancerous and noncancerous cell lines, namely, HT29 (human colon adenocarcinoma), A549 (human lung adenocarcinoma), and RPE-1 (human retinal epithelium). Cisplatin was used as a positive control. Cells were first incubated for 48 h with the complexes before cell viability was measured with a colorimetric resazurin assay.
(§2) Ce ll Culture: T he RPE-1 c ell l ine wa s cul ture d in DME M /F12 med iu m (G ibco) . T h e HT29 c ell line was
culture d in McCoy me dium (Gibco).
(§3) All ce ll line s were co mple me nted wit h 10% o f fetal calf ser um ( Gibco) and 100 U.mL-1 penicillin-
(§4) streptomycin mixture (Gibco) and maintained in a humidiﬁed atmosphere at 37 °C and 5% CO2.
(§5) Cell Viability Assay using a 2D Cellular Model: The cytotoxicity of the compounds was assessed by a
(§6) ﬂuorometric ce ll viability assay using Resazurin (Acros Organics) . Brieﬂy, ce l ls were s ee de d in tri pl ic ate
(§7) in 96-well plates at a 4×10^3 cells/well density in 100 μL Gibco McCoy’s 5A (1X) + GlutaMAX (Modiﬁed
(§8) Medium) with 10 % FBS and 1% Penicillin/Streptomycin. AŌer 24 h, cells were treated with increasing
(§9) concentraƟons of the compo unds and cisplaƟn. DiluƟons for the compounds were prepared f rom 10
(§10) mM stock in DMSO which were diluted to 100 - 0,01 μM with medium. AŌer 48 h of incubaƟon, the
(§11) medium was removed and 100 μL of complete medium containing resazurin (0.2 mg.mL-1 ﬁnal
(§12) concentraƟon) was adde d. AŌer 4 h of incubaƟon at 37 °C, the ﬂuoresc ence signal of the resoruﬁn
(§13) values were then calculated using the GraphPad Prism soŌware.

[2] = system: A549 (human lung adenocarcinoma); test: Cell viability (resazurin) assay, 2D model, A549; settings: 48 h incubation, three independent experiments, read-out: IC50 ± SEM, A549
Description: as §1, §2
culture d in McCoy me dium (Gibco).
as §3, §4, §5, §6, §7, §8, §9, §10, §11, §12, §13

[3] = system: RPE-1 (human retinal epithelium); test: Cell viability (resazurin) assay, 2D model, RPE-1; settings: 48 h incubation, noncancerous cell line, three independent experiments, read-out: IC50 ± SEM, RPE-1
Description: as §1, §2
culture d in McCoy me dium (Gibco).
as §3, §4, §5, §6, §7, §8, §9, §10, §11, §12, §13

IC50 [1]	IC50 [2]	SMILES	IC50 [3]
> 100 µM	> 100 µM	[Cl][Cu][Cl] [CuCl2]	> 100 µM
> 100 µM	> 100 µM	N.[O]=[Re](=[O])(=[O])[OH] [(NH4)[ReO4]]	> 100 µM

SMILES	IC50 [1]	IC50 [2]	IC50 [3]
N.N.[Cl][Pt][Cl] [cisplatin]	7.84 ± 0.57 µM	10.9 ± 0.17 µM	22.6 ± 2.74 µM
